Results reported in patent US20050119251A1, “Nicotinamide derivatives and their use as therapeutic agents” (priority 2001, published 2005).

Compound: COc1nc(N2CCN(C(=O)c3ccccc3C(F)(F)F)CC2)ccc1C(=O)NCCC1CC1 [Example 7, N-(2-cyclopropylethyl)-2-methoxy-6-(4-(2-trifluoromethylbenzoyl)piperazin-1-yl]nicotinamide]
- melting point: 49 to 51 °C
